Assay results reported in patent US7098218B2, “Steroidal compounds for inhibiting steroid sulphatase” (priority 2001, dated 2006).
Where “and” joins values, the source holds several entries; their conditions need not be identical. Equal values may be shown once.

Experiments:
[1] = target: T1, human placental steroid sulphatase (Homo sapiens, UniProt P08842); test: Inhibition of oestrone sulphatase activity in human placental microsomes; format: biochemical; conditions: for inhibition at 0.0001 µM / inhibition at 0.001 µM / inhibition at 0.01 µM / inhibition at 0.1 µM / inhibition at 1 µM / inhibition at 10 µM: read-out: Mean % Inhibition ± SD
T1 construct: Placental microsomes (100000 g fraction) were prepared from a positive-positive human placenta from a normal-term pregnancy; from tissue; host or cells: human placenta, microsomal fraction
T1 sequence (P08842 22-583): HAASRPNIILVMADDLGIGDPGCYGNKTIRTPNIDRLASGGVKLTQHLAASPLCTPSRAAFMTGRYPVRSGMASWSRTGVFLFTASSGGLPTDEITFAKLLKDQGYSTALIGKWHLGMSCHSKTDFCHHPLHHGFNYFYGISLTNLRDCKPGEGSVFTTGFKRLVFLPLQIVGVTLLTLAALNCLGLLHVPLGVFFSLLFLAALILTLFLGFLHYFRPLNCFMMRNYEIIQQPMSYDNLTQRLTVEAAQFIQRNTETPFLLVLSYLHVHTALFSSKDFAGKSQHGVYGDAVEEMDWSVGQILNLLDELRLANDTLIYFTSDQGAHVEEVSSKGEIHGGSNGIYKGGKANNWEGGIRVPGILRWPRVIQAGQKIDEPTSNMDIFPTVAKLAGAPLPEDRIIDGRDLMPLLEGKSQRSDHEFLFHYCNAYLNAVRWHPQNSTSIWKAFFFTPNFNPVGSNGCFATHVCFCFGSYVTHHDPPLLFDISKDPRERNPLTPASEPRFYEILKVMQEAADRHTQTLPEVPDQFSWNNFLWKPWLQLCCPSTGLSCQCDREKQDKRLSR

[2] = target: T2, E2DH Type I (HSD Type I) in T47D breast cancer cells (Homo sapiens, UniProt P14061); test: Conversion of oestrone to oestradiol in intact T47D cell monolayers (Protocol 7); format: cell-based; conditions: measured at 10 μM; for inhibition at 10 µM: T47D, read-out: % Inhibition E1 → E2 ± SD (HSD Type I)
T2 construct: T47D breast cancer cells in which E2HSD Type I activity is abundant; endogenous in cells; host or cells: T47D breast cancer cells
T2 sequence (P14061 2-328 limits assumed): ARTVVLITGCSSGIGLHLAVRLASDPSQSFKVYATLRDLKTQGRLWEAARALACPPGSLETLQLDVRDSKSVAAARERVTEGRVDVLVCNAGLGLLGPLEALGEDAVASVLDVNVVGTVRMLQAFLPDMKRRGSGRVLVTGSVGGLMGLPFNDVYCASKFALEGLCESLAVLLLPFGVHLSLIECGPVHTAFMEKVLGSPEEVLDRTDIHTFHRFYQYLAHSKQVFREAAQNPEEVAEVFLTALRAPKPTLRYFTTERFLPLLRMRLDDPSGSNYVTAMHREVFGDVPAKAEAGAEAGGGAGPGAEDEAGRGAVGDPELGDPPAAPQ
Protocol: (§1) The ability of compounds to inhibit steroid dehydrogenase activity can be assessed using either T47D breast cancer cells in which E2HSD Type I activity is abundant or MDA-MB-231 cells for Type II inhibitor studies. In both cell lines formation of products is linear with respect to time and cell numbers. Details on a suitable Assay Protocol are presented in the Examples section.
(§2) Conversion of oestrone to oestradiol (E1→E2, E2DH Type I) and oestradiol to oestrone (E2→E1, E2DH Type II) was measured in intact cell monolayers of T47D and MDA-MB231 breast cancer cells respectively. Cells were cultured in flasks until they were 80–90% confluent. ^3 H-E1 or ^3H-E2 (6 pmol, ˜90 Ci/mmol) were added to each flask in the absence (control) or presence of various test compounds (10 μM) in 2.5 ml of medium. Substrate was also added to flasks without cells and incubated in parallel (blanks).
(§3) After incubation with T47D cells for 30 min or MDA cells for 3 h at 37° C., 2 ml of the medium was added to test tubes containing ^14C-E2 or ^14C-E1 (˜5000 cpm) and 50 μg E2 or E1 respectively. Steroids were extracted from the aqueous medium with diethyl ether (4 ml). The ether phase was decanted into separate tubes after freezing the aqueous phase in solid carbon dioxide-methanol mixture. The ether was evaporated to dryness under a stream of air at 40° C. The residue was dissolved in a small volume of diethyl ether and applied to TLC plates containing a fluorescent indicator. E1 and E2 were separated by TLC using DCM-Ethyl acetate (4:1 v/v). The position of the product from each incubation flask was marked on the TLC plate after visualisation under UV light. The marked regions were cut out and placed in scintillation vials containing methanol (0.5 ml) to elute the product. The amount of ^3 H-product formed and ^14C-E1 or ^14C-E2 recovered were calculated after scintillation spectrometry. The amount of product formed was corrected for procedural losses and for the number of cells in each flask.

[3] = target: T3, E2DH Type II (HSD Type II) in MDA-MB231 breast cancer cells (Homo sapiens, UniProt P37059); test: Conversion of oestradiol to oestrone in intact MDA-MB231 cell monolayers (Protocol 7); format: cell-based; conditions: MDA-MB-231, measured at 10 μM, read-out: % Inhibition E2 → E1 ± SD (HSD Type II)
T3 construct: endogenous in cells; host or cells: MDA-MB-231 breast cancer cells
T3 sequence (P37059 1-387): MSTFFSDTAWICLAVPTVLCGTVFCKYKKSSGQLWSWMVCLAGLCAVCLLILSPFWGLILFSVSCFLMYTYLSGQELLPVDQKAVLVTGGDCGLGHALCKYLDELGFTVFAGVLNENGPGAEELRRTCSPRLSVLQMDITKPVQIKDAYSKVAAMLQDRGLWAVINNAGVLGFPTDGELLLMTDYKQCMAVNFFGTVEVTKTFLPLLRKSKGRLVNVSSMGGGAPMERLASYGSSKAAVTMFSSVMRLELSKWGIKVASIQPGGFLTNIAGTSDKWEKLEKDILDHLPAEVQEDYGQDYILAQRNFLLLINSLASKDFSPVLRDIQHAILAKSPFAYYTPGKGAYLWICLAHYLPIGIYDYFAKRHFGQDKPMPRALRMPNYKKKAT
Protocol: as §1, §2, §3

[4] = target: T4, STS (Homo sapiens, UniProt P08842); test: biochemical; conditions: STS IC50 (nM), inhibition of E1S→E1; Table 1
T4 construct: can be assessed using either intact MCF-7 breast cancer cells or placental microsomes
T4 sequence (P08842 22-583): T1 sequence (P08842 22-583)

Compound | inhibition at 10 µM [2] [%] | inhibition at 10 µM [3] [%] | other results
C[C@]12CCC3c4ccc(O)cc4CCC3C1CC(=O)NC2=O (stereo partly shown) | – | – | melting point: 297 to 300 °C
CN1C(=O)CC2C3CCc4cc(O)ccc4C3CC[C@]2(C)C1=O (stereo partly shown) | – | – | melting point: 328 to 330 °C
CCCN1C(=O)CC2C3CCc4cc(O)ccc4C3CC[C@]2(C)C1=O (stereo partly shown) | – | – | melting point: 183 to 186 °C
CCCCCN1C(=O)CC2C3CCc4cc(O)ccc4C3CC[C@]2(C)C1=O (stereo partly shown) | – | – | melting point: 181 to 184 °C
C[C@]12CCC3c4ccc(O)cc4CCC3C1CC(=O)N(Cc1ccccc1)C2=O (stereo partly shown) | – | – | melting point: 298 to 301 °C
C[C@]12CCC3c4ccc(O)cc4CCC3C1CC(=O)N(CCCCBr)C2=O (stereo partly shown) | – | – | melting point: 165 to 167 °C
C=CCN1C(=O)CC2C3CCc4cc(O)ccc4C3CC[C@]2(C)C1=O (stereo partly shown) | – | – | melting point: 147 to 149 °C
CCN1C(=O)CC2C3CCc4cc(O)ccc4C3CC[C@]2(C)C1=O (stereo partly shown) | – | – | melting point: 306 to 308 °C
CCCCCCN1C(=O)CC2C3CCc4cc(O)ccc4C3CC[C@]2(C)C1=O (stereo partly shown) | – | – | melting point: 157 to 159 °C
C[C@]12CCC3c4ccc(O)cc4CCC3C1CC(=O)N(CC1CC1)C2=O (stereo partly shown) | – | – | melting point: 238 to 240 °C
CC(C)(C)c1ccc(CN2C(=O)CC3C4CCc5cc(O)ccc5C4CC[C@]3(C)C2=O)cc1 (stereo partly shown) | – | – | melting point: 128 to 130 °C
C[C@]12CCC3c4ccc(OS(N)(=O)=O)cc4CCC3C1CC(=O)NC2=O (stereo partly shown) [Compound 36, 3-Sulfamoyl-16,17-seco-estra-1,3,5(10)-Triene16,17-imide] | – | – | IC50 [1]: 20 nM; inhibition at 0.0001 µM [1]: -6.5 ± 3.6%; inhibition at 0.001 µM [1]: -2.5 ± 3%; inhibition at 0.01 µM [1]: 17.4 ± 32.3%; inhibition at 0.1 µM [1]: 72.6 ± 3.1%; inhibition at 1 µM [1]: 93.8 ± 4.2%; inhibition at 10 µM [1]: 98.7 ± 2.7%
CN1C(=O)CC2C3CCc4cc(OS(N)(=O)=O)ccc4C3CC[C@]2(C)C1=O (stereo partly shown) [Compound 37, 3-Sulfamoyl-N-methyl-16,17-seco-estra-1,3,5(10)-triene-16,17-imide] | – | – | IC50 [1]: 12 nM; inhibition at 0.0001 µM [1]: 4.7 ± 3%; inhibition at 0.001 µM [1]: 15 ± 2.6%; inhibition at 0.01 µM [1]: 46.4 ± 6%; inhibition at 0.1 µM [1]: 81.9 ± 3.3%; inhibition at 1 µM [1]: 96.4 ± 5.1%; inhibition at 10 µM [1]: 99.1 ± 0.2%
C[C@]12CCC3c4ccc(OS(N)(=O)=O)cc4CCC3C1CC(=O)N(Cc1ccccc1)C2=O (stereo partly shown) [STX 236, 3-Sulfamoyl-N-benzyl-16,17-seco-estra-1,3,5(10)-triene-16,7-imide] | – | – | inhibition of STS (in words) ([1]; in vitro): in a minor extend
C[C@]12CCC3c4ccc(O)cc4CCC3C1CC(=O)NC2=O (stereo partly shown) [compound 187] | 25.3 ± 2.2 | -15.4 ± 0.41 | –
CN1C(=O)CC2C3CCc4cc(O)ccc4C3CC[C@]2(C)C1=O (stereo partly shown) [compound 188] | 33 ± 1.79 | -3.51 ± 2.44 | –
CCCN1C(=O)CC2C3CCc4cc(O)ccc4C3CC[C@]2(C)C1=O (stereo partly shown) [compound 189] | 17 ± 3.25 | 5.05 ± 2.31 | –
CCCCCN1C(=O)CC2C3CCc4cc(O)ccc4C3CC[C@]2(C)C1=O (stereo partly shown) [compound 190] | 24.1 ± 4.59 | 0.48 ± 4.76 | –
CCCN1C(=O)CC2C3CCc4cc(OS(N)(=O)=O)ccc4C3CC[C@]2(C)C1=O (stereo partly shown) [compound 213] | 22.5 ± 1.62 | 14.3 ± 14.8 | IC50 [4]: 41 nM

Compound | inhibition at 10 µM [2] [%] | inhibition at 10 µM [3] [%] | other results
C[C@]12CCC3c4ccc(O)cc4CCC3C1CC(=O)N(Cc1ccccc1)C2=O (stereo partly shown) [compound 233] | 58.8 ± 0.68 | 35.8 ± 3.88 | % Inhibition E1 → E2 ± SD (HSD Type I) ([2]; 10 µM): 57.43 ± 1.89%
C[C@]12CCC3c4ccc(O)cc4CCC3C1CC(=O)N(Cc1cccnc1)C2=O (stereo partly shown) [compound 234] | 25.8 ± 9.27 | -1.45 ± 11.4 | –
C[C@]12CCC3c4ccc(O)cc4CCC3C1CC(=O)N(CCCCBr)C2=O (stereo partly shown) [compound 235] | 16.6 ± 1.46 | 10.7 ± 0.78 | –
C[C@]12CCC3c4ccc(OS(N)(=O)=O)cc4CCC3C1CC(=O)N(Cc1ccccc1)C2=O (stereo partly shown) [compound 236] | 20.4 ± 6.25 | 5.84 ± 11.8 | IC50 [4]: 280 nM
C[C@]12CCC3c4ccc(OS(N)(=O)=O)cc4CCC3C1CC(=O)N(Cc1cccnc1)C2=O (stereo partly shown) [compound 237] | -2 | – | –
C=CCN1C(=O)CC2C3CCc4cc(O)ccc4C3CC[C@]2(C)C1=O (stereo partly shown) [compound 274] | 36.82 ± 0.36 | -4.04 ± 0.36 | –
CCN1C(=O)CC2C3CCc4cc(O)ccc4C3CC[C@]2(C)C1=O (stereo partly shown) [compound 275] | 42.5 ± 3.02 | 32.1 ± 1.06 | –
CCCCCCN1C(=O)CC2C3CCc4cc(O)ccc4C3CC[C@]2(C)C1=O (stereo partly shown) [compound 276] | 22.7 ± 2.2 | 8.32 ± 7.5 | –
CCCCN1C(=O)CC2C3CCc4cc(O)ccc4C3CC[C@]2(C)C1=O (stereo partly shown) [compound 277] | 18.6 ± 0.89 | 13.2 ± 9.74 | –
C[C@]12CCC3c4ccc(O)cc4CCC3C1CC(=O)N(CC1CC1)C2=O (stereo partly shown) [compound 278] | 24.2 ± 1.71 | 8.31 ± 2.46 | –
CC(C)(C)c1ccc(CN2C(=O)CC3C4CCc5cc(O)ccc5C4CC[C@]3(C)C2=O)cc1 (stereo partly shown) [compound 279] | 16 ± 0.88 | 3.87 ± 4.97 | –
C=CCN1C(=O)CC2C3CCc4cc(OS(N)(=O)=O)ccc4C3CC[C@]2(C)C1=O (stereo partly shown) [compound 280] | – | – | IC50 [4]: 75 nM
CCN1C(=O)CC2C3CCc4cc(OS(N)(=O)=O)ccc4C3CC[C@]2(C)C1=O (stereo partly shown) [compound 281] | 24.7 ± 2.39 | 20.4 ± 3.14 | IC50 [4]: 52 nM and 24 nM and 29 nM
CCCCCCN1C(=O)CC2C3CCc4cc(OS(N)(=O)=O)ccc4C3CC[C@]2(C)C1=O (stereo partly shown) [compound 282] | – | – | IC50 [4]: 288 nM
CCCCN1C(=O)CC2C3CCc4cc(OS(N)(=O)=O)ccc4C3CC[C@]2(C)C1=O (stereo partly shown) [compound 283] | – | – | IC50 [4]: 382 nM
CC(C)(C)c1ccc(CN2C(=O)CC3C4CCc5cc(OS(N)(=O)=O)ccc5C4CC[C@]3(C)C2=O)cc1 (stereo partly shown) [compound 285] | 22.5 ± 3.72 | 3.56 ± 4.89 | IC50 [4]: 23 nM
C[C@]12CCC3c4ccc(OS(N)(=O)=O)cc4CCC3C1CC(=O)N(CCCCBr)C2=O (stereo partly shown) [compound 286] | 26 ± 3.23 | -2.98 ± 0.38 | –
COc1cc2c(cc1O)CCC1C2CC[C@]2(C)C(=O)NC(=O)CC12 (stereo partly shown) [compound 325] | 7.78 ± 2.45 | -20.2 ± 14.8 | –
COc1cc2c(cc1OS(N)(=O)=O)CCC1C2CC[C@]2(C)C(=O)NC(=O)CC12 (stereo partly shown) [compound 326] | 7.5 ± 12.4 | 15 ± 1.22 | IC50 [4]: 309 nM
